Experimental data as given in the NIST ThermoML archive (doi:10.1016/j.tca.2013.02.010).

Tests used:
[1] = xn = mol fraction of the nth substance listed; conditions: 308.15 K, 101 kPa, Liquid, Direct dilatometry
[2] = excess molar enthalpy (molar enthalpy of mixing); xn = mol fraction of the nth substance listed; conditions: 101 kPa, Liquid, Flow calorimetry
[3] = refractive index (Na D-line) (dimensionless); conditions: 298.15 K; 101.33 kPa; Liquid; Standard Abbe refractometry
[4] = 101.33 kPa, Liquid, Pycnometric method

NC=O [formamide] + CCCO
[1]
Conditions	excess molar volume [m3/mol]
x1 = 0.0615	-3e-08
x1 = 0.1052	-4.3e-08
x1 = 0.165	-6e-08
x1 = 0.1937	-6.9e-08
x1 = 0.2453	-7.8e-08
x1 = 0.2856	-9.1e-08
x1 = 0.3317	-1.05e-07
x1 = 0.372	-1.12e-07
x1 = 0.3949	-1.25e-07
x1 = 0.4236	-1.35e-07
x1 = 0.4639	-1.48e-07
x1 = 0.5213	-1.61e-07
x1 = 0.5903	-1.71e-07
x1 = 0.6394	-1.71e-07
x1 = 0.6765	-1.68e-07
x1 = 0.7225	-1.59e-07
x1 = 0.7686	-1.42e-07
x1 = 0.8031	-1.23e-07
x1 = 0.8492	-1e-07
x1 = 0.8837	-7.8e-08
x1 = 0.9124	-5.5e-08
x1 = 0.9411	-3.3e-08

[2]
Conditions	excess molar enthalpy [kcal/mol]
298.15 K, x1 = 0.0624	0.0614
298.15 K, x1 = 0.0881	0.082
298.15 K, x1 = 0.1208	0.105
298.15 K, x1 = 0.1479	0.123
298.15 K, x1 = 0.1832	0.141
298.15 K, x1 = 0.2231	0.156
298.15 K, x1 = 0.254	0.166
298.15 K, x1 = 0.3018	0.1757
298.15 K, x1 = 0.3775	0.1809
298.15 K, x1 = 0.452	0.1788
298.15 K, x1 = 0.4832	0.1771
298.15 K, x1 = 0.5364	0.1678
298.15 K, x1 = 0.5953	0.158
298.15 K, x1 = 0.6672	0.1441
298.15 K, x1 = 0.6958	0.137
298.15 K, x1 = 0.7521	0.122
298.15 K, x1 = 0.7958	0.109
298.15 K, x1 = 0.8443	0.0913
298.15 K, x1 = 0.8956	0.0686
298.15 K, x1 = 0.9208	0.0559
298.15 K, x1 = 0.9526	0.0361
298.15 K, x1 = 0.9666	0.028
308.15 K, x1 = 0.0582	0.0631
308.15 K, x1 = 0.079	0.0825
308.15 K, x1 = 0.104	0.103
308.15 K, x1 = 0.1374	0.125
308.15 K, x1 = 0.1624	0.141
308.15 K, x1 = 0.2082	0.164
308.15 K, x1 = 0.2416	0.1769
308.15 K, x1 = 0.275	0.1869
308.15 K, x1 = 0.3332	0.1979
308.15 K, x1 = 0.4124	0.202
308.15 K, x1 = 0.4666	0.2036
308.15 K, x1 = 0.5082	0.1986
308.15 K, x1 = 0.5666	0.1919
308.15 K, x1 = 0.625	0.1769
308.15 K, x1 = 0.679	0.164
308.15 K, x1 = 0.725	0.15
308.15 K, x1 = 0.775	0.131
308.15 K, x1 = 0.8166	0.113
308.15 K, x1 = 0.8666	0.0877
308.15 K, x1 = 0.9124	0.0621
308.15 K, x1 = 0.9416	0.0425
308.15 K, x1 = 0.9582	0.0306

CCCO [propan-1-ol]
Conditions	refractive index
[3]	1.3835

[4]
Conditions	mass density [kg/m3]
298.15 K	799.76
308.15 K	791.48

CC(C)O [propan-2-ol]
Conditions	refractive index
[3]	1.3753

[4]
Conditions	mass density [kg/m3]
298.15 K	781.25
308.15 K	772.3

NC=O [formamide] + CC(C)O
[1]
Conditions	excess molar volume [m3/mol]
x1 = 0.0455	-3.2e-08
x1 = 0.1021	-6.4e-08
x1 = 0.1327	-7.9e-08
x1 = 0.1725	-1.05e-07
x1 = 0.2155	-1.34e-07
x1 = 0.2692	-1.69e-07
x1 = 0.3269	-2.06e-07
x1 = 0.3535	-2.27e-07
x1 = 0.3867	-2.48e-07
x1 = 0.4245	-2.71e-07
x1 = 0.485	-3e-07
x1 = 0.5191	-3.13e-07
x1 = 0.5729	-3.28e-07
x1 = 0.6237	-3.32e-07
x1 = 0.6951	-3.31e-07
x1 = 0.7543	-3.11e-07
x1 = 0.7907	-2.9e-07
x1 = 0.825	-2.61e-07
x1 = 0.8735	-2e-07
x1 = 0.8999	-1.71e-07
x1 = 0.9331	-1.18e-07
x1 = 0.9745	-5.1e-08

[2]
Conditions	excess molar enthalpy [kcal/mol]
298.15 K, x1 = 0.056	0.0588
298.15 K, x1 = 0.073	0.0736
298.15 K, x1 = 0.099	0.0963
298.15 K, x1 = 0.125	0.111
298.15 K, x1 = 0.162	0.134
298.15 K, x1 = 0.2	0.149
298.15 K, x1 = 0.253	0.167
298.15 K, x1 = 0.291	0.1747
298.15 K, x1 = 0.329	0.1809
298.15 K, x1 = 0.4	0.1855
298.15 K, x1 = 0.468	0.1845
298.15 K, x1 = 0.537	0.179
298.15 K, x1 = 0.597	0.1699
298.15 K, x1 = 0.662	0.157
298.15 K, x1 = 0.702	0.1477
298.15 K, x1 = 0.728	0.139
298.15 K, x1 = 0.766	0.126
298.15 K, x1 = 0.812	0.108
298.15 K, x1 = 0.849	0.0913
298.15 K, x1 = 0.878	0.077
298.15 K, x1 = 0.901	0.0636
298.15 K, x1 = 0.941	0.0406
308.15 K, x1 = 0.0666	0.0798
308.15 K, x1 = 0.0916	0.103
308.15 K, x1 = 0.1166	0.124
308.15 K, x1 = 0.1501	0.1475
308.15 K, x1 = 0.1812	0.165
308.15 K, x1 = 0.229	0.1886
308.15 K, x1 = 0.2702	0.2022
308.15 K, x1 = 0.3082	0.2141
308.15 K, x1 = 0.3666	0.2239
308.15 K, x1 = 0.425	0.2297
308.15 K, x1 = 0.4958	0.2297
308.15 K, x1 = 0.5624	0.2239
308.15 K, x1 = 0.629	0.2094
308.15 K, x1 = 0.6832	0.1919
308.15 K, x1 = 0.7124	0.1809
308.15 K, x1 = 0.7503	0.164
308.15 K, x1 = 0.7958	0.14
308.15 K, x1 = 0.8374	0.115
308.15 K, x1 = 0.8708	0.0932
308.15 K, x1 = 0.8874	0.0805
308.15 K, x1 = 0.9082	0.0674
308.15 K, x1 = 0.954	0.0337

NC=O [formamide]
Conditions	refractive index
[3]	1.4461

[4]
Conditions	mass density [kg/m3]
298.15 K	1129.04
308.15 K	1120.45
